Data taken from US11802120B2, “Fused cyclic urea derivatives as CRHR2 antagonist” (RaQualia Pharma Inc., priority 2018, dated 2023).

biological target: T1, human CRHR2-alpha (Homo sapiens, UniProt Q13324); assay: cAMP functional assay for human CRHR2 (LANCE Ultra cAMP, TR-FRET); assay type: cell-based; conditions: CHO-K1 cells expressing human CRHR2-alpha, agonist human urocortin2 at EC80, cAMP; read-out: IC50 against CRHR2
T1 sequence (Q13324 1-411): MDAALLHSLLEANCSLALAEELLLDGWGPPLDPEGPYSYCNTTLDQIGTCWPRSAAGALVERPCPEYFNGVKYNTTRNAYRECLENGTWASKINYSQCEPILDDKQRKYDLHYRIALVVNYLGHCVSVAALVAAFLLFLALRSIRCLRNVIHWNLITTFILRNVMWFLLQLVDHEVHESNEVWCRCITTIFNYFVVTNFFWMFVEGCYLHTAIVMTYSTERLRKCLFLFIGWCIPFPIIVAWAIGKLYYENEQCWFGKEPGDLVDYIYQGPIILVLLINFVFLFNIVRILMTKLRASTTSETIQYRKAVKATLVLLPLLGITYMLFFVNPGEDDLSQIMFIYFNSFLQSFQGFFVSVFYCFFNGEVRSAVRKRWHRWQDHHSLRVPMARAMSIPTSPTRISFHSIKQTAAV
Outline: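 Antagonism measured in CHO-K1 cells stably expressing the receptor, serum-starved 7 h then cryopreserved. Thawed cells in HBSS buffer with 0.1% BSA, 0.5 mM IBMX, 5 mM Hepes pH 7.4 were preincubated with compound 30 min at 25° C, then stimulated 30 min with EC80 agonist: urocortin2 for CRHR2, CRF for CRHR1.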

IC50, < 0.3 µM:
O=C(N[C@H]1CC[C@H](Cn2c(=O)n(-c3ccc4c(c3)nnn4CCO)c3ccccc32)CC1)c1cc(Cl)cnc1C(F)F [Example 385, 5-chloro-2-(difluoromethyl)-N-((1r,4r)-4-((3-(1-(2-hydroxyethyl)-1H-benzo[d][1,2,3]triazol-5-yl)-2-oxo-2,3-dihydro-1H-benzo[d]imidazol-1-yl)methyl)cyclohexyl)nicotinamide]
O=C(N[C@H]1CC[C@H](Cn2c(=O)n(-c3ccc4nccnc4c3)c3ccccc32)CC1)c1cc(Cl)cnc1C(F)(F)F [Example 407, 5-chloro-N-((1r,4r)-4-((2-oxo-3-(quinoxalin-6-yl)-2,3-dihydro-1H-benzo[d]imidazol-1-yl)methyl)cyclohexyl)-2-(trifluoromethyl)nicotinamide]
Cc1cc(-n2c(=O)n(C[C@H]3CC[C@H](NC(=O)c4cc(Cl)cnc4C(F)F)CC3)c3ccccc32)ccn1 [Example 377, 5-chloro-2-(difluoromethyl)-N-((1r,4r)-4-((3-(2-methyl-pyridin-4-yl)-2-oxo-2,3-dihydro-1H-benzo[d]imidazol-1-yl)methyl)cyclohexyl) nicotinamide]
Cc1ncc(Cl)cc1C(=O)N[C@H]1CC[C@H](Cn2c(=O)n(-c3ccc(NC4CCC4)nc3)c3ccccc32)CC1 [Example 125, 5-chloro-N-((1r,4r)-4-((3-(6-(cyclobutylamino)pyridin-3-yl)-2-oxo-2,3-dihydro-1H-benzo[d]imidazol-1-yl)methyl)cyclo-hexyl)-2-methylnicotinamide]
Cc1ncc(Cl)cc1C(=O)N[C@H]1CC[C@H](Cn2c(=O)n(-c3ccncc3C(F)(F)F)c3ccccc32)CC1 [Example 320, 5-chloro-2-methyl-N-((1r,4r)-4-((2-oxo-3-(3-(trifluoro-methyl)pyridin-4-yl)-2,3-dihydro-1H-benzo[d]imidazol-1-yl)methyl)cyclohexyl) nicotinamide]
Cc1ncc(Cl)cc1C(=O)N[C@H]1CC[C@H](Cn2c(=O)n(-c3ccc(-c4cnco4)cn3)c3ccccc32)CC1 [Example 489, 5-chloro-2-methyl-N-((1r,4r)-4-((3-(5-(oxazol-5-yl)pyridin-2-yl)-2-oxo-2,3-dihydro-1H-benzo[d]imidazol-1-yl)methyl)cyclohexyl)nicotinamide]
O=C(N[C@H]1CC[C@H](Cn2c(=O)n(-c3ccc(N4CC[C@@H](O)C4)nc3)c3ccccc32)CC1)c1cc(Cl)cnc1C(F)F [Example 461, 5-chloro-2-(difluoromethyl)-N-((1R,4r)-4-((3-(6-((R)-3-hydroxypyrrolidin-1-yl)pyridin-3-yl)-2-oxo-2,3-dihydro-1H-benzo[d]imidazol-1-yl)methyl)cyclohexyl) nicotinamide]
COc1ccc(-n2c(=O)n(C[C@H]3CC[C@H](NC(=O)c4cc(Cl)cnc4C)CC3)c3ccccc32)c(C#N)c1 [Example 231, 5-chloro-N-((1r,4r)-4-((3-(2-cyano-4-methoxyphenyl)-2-oxo-2,3-dihydro-1H-benzo[d]imidazol-1-yl)methyl)cyclo-hexyl)-2-methylnicotinamide]
CC(C)(O)C(=O)Nc1ccc(-n2c(=O)n(C[C@H]3CC[C@H](NC(=O)c4cc(Cl)cnc4C(F)F)CC3)c3ccccc32)cn1 [Example 669, 5-chloro-2-(difluoromethyl)-N-((1r,4r)-4-((3-(6-(2-hydroxy-2-methylpropana-mido)pyridin-3-yl)-2-oxo-2,3-dihydro-1H-benzo[d]imidazol-1-yl)methyl)cyclo-hexyl)nicotinamide]
CNC(=O)c1ccc(-n2c(=O)n(C[C@H]3CC[C@H](NC(=O)c4cc(Cl)cnc4N)CC3)c3ccccc32)cn1 [Example 534, 5-(3-(((1r,4r)-4-(2-amino-5-chloronicotinamido)cyclo-hexyl)methyl)-2-oxo-2,3-dihydro-1H-benzo[d]imidazol-1-yl)-N-methylpicolinamide]
Cc1ncc(Cl)cc1C(=O)N[C@H]1CC[C@H](Cn2c(=O)n(-c3cccc(-c4cnn(C)c4)n3)c3ccccc32)CC1 [Example 656, 5-chloro-2-methyl-N-((1r,4r)-4-((3-(6-(1-methyl-1H-pyrazol-4-yl)pyridin-2-yl)-2-oxo-2,3-dihydro-1H-benzo[d]imidazol-1-yl)methyl)cyclohexyl)nicotinamide]
N#Cc1ncccc1-n1c(=O)n(C[C@H]2CC[C@H](NC(=O)c3cc(Cl)cnc3C(F)(F)F)CC2)c2ccccc21 [Example 293, 5-chloro-N-((1r,4r)-4-((3-(2-cyanopyridin-3-yl)-2-oxo-2,3-dihydro-1H-benzo [d]imidazol-1-yl)methyl)cyclohexyl)-2-(trifluoro-methyl)nicotinamide]
Cc1ncc(Cl)cc1C(=O)N[C@H]1CC[C@H](Cn2c(=O)n(-c3cccc4cnccc34)c3ccccc32)CC1 [Example 343, 5-chloro-N-((1r,4r)-4-((3-(isoquinolin-5-yl)-2-oxo-2,3-dihydro-1H-benzo[d]imidazol-1-yl)methyl)cyclo-hexyl)-2-methylnicotinamide]
O=C(N[C@H]1CC[C@H](Cn2c(=O)n(-c3ccc4cnccc4c3)c3ccccc32)CC1)c1cc(Cl)cnc1C(F)(F)F [Example 398, 5-chloro-N-((1r,4r)-4-((3-(isoquinolin-6-yl)-2-oxo-2,3-dihydro-1H-benzo[d]imidazol-1-yl)methyl)cyclohexyl)-2-(trifluoromethyl)nicotinamide]
O=C(N[C@H]1CC[C@H](Cn2c(=O)n(-c3ccncc3Cl)c3ccccc32)CC1)c1cc(Cl)cnc1C(F)(F)F [Example 334, 5-chloro-N-((1r,4r)-4-((3-(3-chloropyridin-4-yl)-2-oxo-2,3-dihydro-1H-benzo[d]imidazol-1-yl)methyl)cyclo-hexyl)-2-(trifluoromethyl) nicotinamide]
Cc1ncc(Cl)cc1C(=O)N[C@H]1CC[C@H](Cn2c(=O)n(-c3cccc4ncncc34)c3ccccc32)CC1 [Example 187, 5-chloro-2-methyl-N-((1r,4r)-4-((2-oxo-3-(quinazolin-5-yl)-2,3-dihydro-1H-benzo[d]imidazol-1-yl)methyl)cyclo-hexyl)nicotinamide]
CC(F)(F)CNc1ccc(-n2c(=O)n(C[C@H]3CC[C@H](NC(=O)c4cc(Cl)cnc4C(F)F)CC3)c3ccccc32)cn1 [Example 515, 5-chloro-2-(difluoromethyl)-N-((1r,4r)-4-((3-(6-((2,2-difluoropropyl)amino)pyridin-3-yl)-2-oxo-2,3-dihydro-1H-benzo[d]imidazol-1-yl)methyl)cyclohexyl)nicotinamide]
Cc1ncc(Cl)cc1C(=O)N[C@H]1CC[C@H](Cn2c(=O)n(-c3ccnc(C)c3C)c3ccccc32)CC1 [Example 331, 5-chloro-N-((1r,4r)-4-((3-(2,3-dimethylpyridin-4-yl)-2-oxo-2,3-dihydro-1H-benzo [d]imidazol-1-yl)methyl)cyclohexyl)-2-methylnico-tinamide]
Cc1ncc(Cl)cc1C(=O)N[C@H]1CC[C@H](Cn2c(=O)n(-c3ccc4c(c3)nc(C)n4C)c3ccccc32)CC1 [Example 168, 5-chloro-N-((1r,4r)-4-((1′,2′-dimethyl-2-oxo-1′H-[1,5′-bibenzo[d]imidazol]-3(2H)-yl)methyl)cyclohexyl)-2-methylnicotinamide]
O=C(N[C@H]1CC[C@H](Cn2c(=O)n(-c3ccccc3F)c3ncccc32)CC1)c1cc(Cl)cnc1C(F)F [Example 449, 5-chloro-2-(difluoromethyl)-N-((1r,4r)-4-((3-(2-fluoro-phenyl)-2-oxo-2,3-dihydro-1H-imidazo[4,5-b]pyridin-1-yl)methyl)cyclohexyl) nicotinamide]
Cc1ncc(Cl)cc1C(=O)N[C@H]1CC[C@H](Cn2c(=O)n(-c3cnc(OCCO)c(F)c3)c3ccccc32)CC1 [Example 553, 5-chloro-N-((1r,4r)-4-((3-(5-fluoro-6-(2-hydroxyethoxy)pyridin-3-yl)-2-oxo-2,3-dihydro-1H-benzo[d]imidazol-1-yl)methyl)cyclohexyl)-2-methylnicotinamide]
Cc1ncc(Cl)cc1C(=O)N[C@H]1CC[C@H](Cn2c(=O)n(-c3ccc(-c4cnn(C)c4)nc3)c3ccccc32)CC1 [Example 214, 5-chloro-2-methyl-N-((1r,4r)-4-((3-(6-(1-methyl-1H-pyrazol-4-yl)pyridin-3-yl)-2-oxo-2,3-dihydro-1H-benzo[d]imidazol-1-yl)methyl)cyclohexyl)nico-tinamide]
Cc1cc(N2CCNC2=O)ncc1-n1c(=O)n(C[C@H]2CC[C@H](NC(=O)c3cc(Cl)cnc3C(F)F)CC2)c2ccccc21 [Example 558, 5-chloro-2-(difluoromethyl)-N-((1r,4r)-4-((3-(4-methyl-6-(2-oxoimidazolidin-1-yl)pyridin-3-yl)-2-oxo-2,3-dihydro-1H-benzo[d]imidazol-1-yl)methyl)cyclohexyl) nicotinamide]
